A word on the EC50: it is the concentration that produces a half-maximal response.

≈ marks a conversion by molar mass, not a printed value.

Holding throughout (format): cell-based
Assay [1] relates to Alternaria alternata. The experiment in a line: Fungicidal activity screen in amended agar, 96 well plates, Alternaria alternata. Conditions: Medium N agar, 1,000 spores/mL, 20, 2, 0.2 and 0.02 ppm, room temperature (18° C.), assessed after 3 to 4 days, read-out: Alternaria (fungal growth vs DMSO controls, EC50 ranking). The procedure:
(§1) Compounds were screened in 96 well plates with 10 compounds per plate. Each compound was screened using agar amended to 20, 2, 0.2 and 0.02 ppm of the test material. Proline at 50 and 10 ppm and 0.2% DMSO were used respectively as positive and negative controls. Each test concentration and standard were tested twice on a plate.
(§2) Compounds were screened against the following three fungal pathogens—Botrytis cinerea, Alternaria alternata and Zymoseptoria tritici. The agar used in the test varied depending on the pathogen with Medium N used for B. cinerea and A. alternata and 1% potato dextrose agar for Z. tritici. For each pathogen sufficient spores were added to the appropriate agar to give 1,000 spores/mL agar of A. alternata, 5,000 spores/ml agar of B. cinerea and 10,000 spores/mL agar of Z. tritici.
(§3) A ×10 stock solution in 2% DMSO was produced for each dose i.e. 200, 20, 2 and 0.2 ppm, and 10 μl of this added to the appropriate wells on the plate. An equivalent amount of 2% DMSO and Proline stock at 500 and 100 ppm were added for the controls. To each well, 90 μl of the appropriate agar spore suspension was added to give the final well concentrations outlined in the first paragraph.
(§4) Plates were incubated at room temperature (18° C.) and assessed after: • a) 3 to 4 days A. alternata and B. cinerea • b) 7 days for Z. tritici
(§5) The amount of fungal growth in each well was compared to the DMSO controls and scored according to the following key: • A—EC50<2 ppm • B—2≤EC50<20 • C—EC50≥20 • D—No activity detected at the highest dose tested • NT—Not tested

In assay [2] the test system is Zymoseptoria tritici. The experiment in a line: Fungicidal activity screen in amended agar, 96 well plates, Zymoseptoria tritici. As to conditions: Zymoseptoria tritici, 168 h; 1% potato dextrose agar, 10,000 spores/mL, 20, 2, 0.2 and 0.02 ppm, room temperature (18° C.), assessed after 7 days; read-out: Zymoseptoria (fungal growth vs DMSO controls, EC50 ranking). The procedure:
as §1, §2, §3, §4, §5

For assay [3], the system named is Botrytis cinerea. The experiment in a line: Fungicidal activity screen in amended agar, 96 well plates, Botrytis cinerea. As to conditions: Medium N agar, 5,000 spores/ml, 20, 2, 0.2 and 0.02 ppm, room temperature (18° C.), assessed after 3 to 4 days, read-out: Botrytis (fungal growth vs DMSO controls, EC50 ranking). On the procedure: as §1, §2, §3, §4, §5

As for `COc1ccnc2c(=O)n(-c3nc4ccc(OC5CCCC5)cc4s3)c(=S)oc12` [Example 23, 3-(6-(Cyclopentyloxy)benzo[d]thiazol-2-yl)-8-methoxy-2-thioxo-2,3-dihydro-4H-pyrido[2,3-e][1,3]oxazin-4-one], the EC50 in assay [1] is at least 20 µg/mL; in assay [2], below 2 µg/mL; in assay [3] it was 2 to 20 µg/mL (≈ 4.68 to 46.8 µM).
The corresponding values for `COc1ccnc2c(=O)n(-c3nc4ccc(Sc5ccccc5)cc4s3)c(=S)oc12` [Example 27, 8-Methoxy-3-(6-(phenylthio)benzo[d]thiazol-2-yl)-2-thioxo-2,3-dihydro-4H-pyrido[2,3-e][1,3]oxazin-4-one] are 2 to 20 µg/mL (≈ 4.43 to 44.3 µM), below 2 µg/mL and at least 20 µg/mL.
In the case of `COc1ccnc2c(=O)n(-c3nc4ccc(Cc5ccc(F)cc5Cl)cc4s3)c(=S)oc12` [Example 28, 3-(6-(2-Chloro-4-fluorobenzyl)benzo[d]thiazol-2-yl)-8-methoxy-2-thioxo-2,3-dihydro-4H-pyrido[2,3-e][1,3]oxazin-4-one], the EC50 in assay [1] is 2 to 20 µg/mL (≈ 4.12 to 41.2 µM); in assay [2], below 2 µg/mL; in assay [3], 2 to 20 µg/mL (≈ 4.12 to 41.2 µM).
`COc1ccnc2c(=O)n(-c3nc4ccc(Cc5ccccc5Cl)cc4s3)c(=S)oc12` [Example 29, 3-(6-(2-Chlorobenzyl)benzo[d]thiazol-2-yl)-8-methoxy-2-thioxo-2,3-dihydro-4H-pyrido[2,3-e][1,3]oxazin-4-one]: the EC50 in assay [1] is at least 20 µg/mL; in assay [2], below 2 µg/mL; in assay [3], at least 20 µg/mL.
As for `COc1ccnc2c(=O)n(-c3nc4ccc(Oc5cccnc5Cl)cc4s3)c(=S)oc12` [Example 36, 3-(6-((2-chloropyridin-3-yl)oxy)benzo[d]thiazol-2-yl)-8-methoxy-2-thioxo-2,3-dihydro-4H-pyrido[2,3-e][1,3]oxazin-4-one], the results for the EC50 in assay [1], in assay [2] and in assay [3] were at least 20 µg/mL, below 2 µg/mL and at least 20 µg/mL, respectively.
In the case of `COc1ccnc2c(=O)n(-c3nc4ccc(Sc5ccccc5Cl)nc4s3)c(=S)oc12` [Example 38, 3-(5-((2-chlorophenyl)thio)thiazolo [5,4-b]pyridin-2-yl)-8-methoxy-2-thioxo-2,3-dihydro-4H-pyrido[2,3-e][1,3]oxazin-4-one], the half-maximal effective concentration (EC50) in assay [1] was at least 20 µg/mL; in assay [2], below 2 µg/mL; in assay [3], at least 20 µg/mL.
With `COc1ccnc2c(=O)n(-c3nc4ccc(Oc5ccccc5OC(F)(F)F)cc4s3)c(=S)oc12` [Example 39, 8-methoxy-2-thioxo-3-(6-(2-(trifluoromethoxy)phenoxy)benzo[d]thiazol-2-yl)-2,3-dihydro-4H-pyrido[2,3-e][1,3]oxazin-4-one], the EC50 in assay [1] is at least 20 µg/mL; in assay [2], below 2 µg/mL; in assay [3], at least 20 µg/mL.
As for `COc1ccnc2c(=O)n(-c3nc4ccc(Oc5ccccc5Cl)nc4s3)c(=S)oc12` [Example 40, 3-(5-(2-chlorophenoxy)thiazolo[5,4-b]pyridin-2-yl)-8-methoxy-2-thioxo-2,3-dihydro-4H-pyrido[2,3-e][1,3] oxazin-4-one], the concentration giving a half-maximal response (EC50) in assay [1] is at least 20 µg/mL; in assay [2], below 2 µg/mL; in assay [3], at least 20 µg/mL.
As for `COc1ccnc2c(=O)n(-c3nc4ccc(Oc5cccnc5Cl)nc4s3)c(=S)oc12` [Example 41, 3-(5-((2-chloropyridin-3-yl)oxy)thiazolo[5,4-b]pyridin-2-yl)-8-methoxy-2-thioxo-2,3-dihydro-4H-pyrido[2,3-e][1,3]oxazin-4-one], the EC50 in assay [1], in assay [2] and in assay [3] was at least 20 µg/mL throughout.
On to `COc1ccccc1Oc1ccc2nc(-n3c(=S)oc4c(OC)ccnc4c3=O)sc2n1` [Example 42, 8-methoxy-3-(5-(2-methoxyphenoxy)thiazolo[5,4-b]pyridin-2-yl)-2-thioxo-2,3-dihydro-4H-pyrido[2,3-e][1,3]oxazin-4-one], for which the EC50 in assay [1] was at least 20 µg/mL; in assay [2] it was 2 to 20 µg/mL (≈ 4.29 to 42.9 µM); in assay [3], at least 20 µg/mL.
For the compound `COc1ccnc2c(=O)n(-c3nc4ccc(Sc5cccnc5Cl)cc4s3)c(=S)oc12` [Example 47, 3-(6-((2-chloropyridin-3-yl)thio)benzo[d]thiazol-2-yl)-8-methoxy-2-thioxo-2,3-dihydro-4H-pyrido[2,3-e][1,3]oxazin-4-one], the EC50 in assay [1] was at least 20 µg/mL; in assay [2] it was below 2 µg/mL; in assay [3], at least 20 µg/mL.
As for `COc1ccnc2c(=O)n(-c3nc4ccc(Oc5ccc(C(F)(F)F)cc5Cl)nc4s3)c(=S)oc12` [Example 48, 3-(5-(2-chloro-4-(trifluoromethyl)phenoxy)thiazolo[5,4-b]pyridin-2-yl)-8-methoxy-2-thioxo-2,3-dihydro-4H-pyrido[2,3-e][1,3]oxazin-4-one], the EC50 in assay [1] was at least 20 µg/mL; in assay [2], below 2 µg/mL; in assay [3] it was at least 20 µg/mL.
`CCOc1ccccc1Oc1ccc2nc(-n3c(=S)oc4c(OC)ccnc4c3=O)sc2c1` [Example 49, 3-(6-(2-ethoxyphenoxy)benzo[d]thiazol-2-yl)-8-methoxy-2-thioxo-2,3-dihydro-4H-pyrido[2,3-e][1,3]oxazin-4-one]: the EC50 in assay [1] is at least 20 µg/mL; in assay [2] it was below 2 µg/mL; in assay [3], at least 20 µg/mL.
As to `COc1ccnc2c(=O)n(-c3nc4ccc(Oc5ccccc5OC(F)F)cc4s3)c(=S)oc12` [Example 50, 3-(6-(2-(difluoromethoxy)phenoxy)benzo[d]thiazol-2-yl)-8-methoxy-2-thioxo-2,3-dihydro-4H-pyrido[2,3-e][1,3]oxazin-4-one], the half-maximal effective concentration (EC50) in assay [1] is at least 20 µg/mL; in assay [2], below 2 µg/mL; in assay [3] it was at least 20 µg/mL.

The values above are taken from patent US12415815B2, “Pyrido[2,3-e]oxazine derivatives as agricultural chemicals” (GLOBACHEM NV, priority 2020, dated 2025).
